Legend:
[1] = system: K/2785 virus (A/Korea/2785/2009); format: cell-based, 2009 pandemic H1N1 oseltamivir-resistant variant
[2] = target: K/2785 virus (A/Korea/2785/2009) neuraminidase (NA H275Y) (Influenza A virus, UniProt C5MQP8, H275Y); format: biochemical, 2009 pandemic H1N1 oseltamivir-resistant variant

In the case of `NC(=O)c1nc(F)cnc1O` [Favipiravir, 6-fluoro-3-hydroxy-2-pyrazinecarboxamide], the EC50 [1] is reported as 10.8 µM.

In the case of `CCC(CC)[C@H](NC(C)=O)[C@@H]1[C@H](O)[C@@H](C(=O)O)C[C@H]1N=C(N)N` [Peramivir], the IC50 [2] is reported as 0.0298 µM and the “higher concentration needed compared with K/09 virus” value [2] is reported as “more than 20 fold”.
